Assay results reported in publication PMC6837341, “Evolutionarily conserved susceptibility of the mitochondrial respiratory chain to SDHI pesticides and its consequence on the impact of SDHIs on human cultured cells” (PLoS ONE, 2019).
Where two headings read alike, the source gives them in different places.

Experiments:
[1] = Acceptable Daily Intake according to European regulations and corresponding blood concentration
Experimental: It is extremely hazardous to compare the IC50 values obtained in vitro under laboratory conditions with the concentrations of SDHI that might result from the application of these pesticides on crops. One can however reliably determine the concentration of SDHI at the outlet of the diffusion nozzles. In the case of bixafen, it is about 0.6 to 1.8 mM according to the recommendations distributed to farmers, resulting in a cloud of nebulization, corresponding to 75–125 g/hectare of bixafen. The final exposition depends on numerous factors hard to control, including the spreading conditions, the nature of the ground, its vegetation cover, etc. From a regulatory point of view, the ADI for example for boscalid and bixafen amounts to 0.04 and 0.02 mg / kg / day, respectively (see legend S2 Fig). For an average adult (60 kg / blood volume 5 l), this correspond to a blood concentration of approximately 1.40 and 0.58 μM, respectively.
Supplementary file pone.0224132.s003.pdf: S2 Fig SDHI molecular structure. The yellow and blue parts for each molecule are reminiscent of the predecessor carboxin structure (top). […] ADI; Acceptable Daily Intake according to European regulations. (PDF) Click here for additional data file.

[2] = molecular target: T1, glycerol-3-phosphate cytochrome c reductase (G3PDH+CIII) (Botrytis cinerea, UniProt Q18ND9); experiment: GCCR activity, Botrytis cinerea mitochondria; assay type: biochemical
T1 sequence (Q18ND9 1-391): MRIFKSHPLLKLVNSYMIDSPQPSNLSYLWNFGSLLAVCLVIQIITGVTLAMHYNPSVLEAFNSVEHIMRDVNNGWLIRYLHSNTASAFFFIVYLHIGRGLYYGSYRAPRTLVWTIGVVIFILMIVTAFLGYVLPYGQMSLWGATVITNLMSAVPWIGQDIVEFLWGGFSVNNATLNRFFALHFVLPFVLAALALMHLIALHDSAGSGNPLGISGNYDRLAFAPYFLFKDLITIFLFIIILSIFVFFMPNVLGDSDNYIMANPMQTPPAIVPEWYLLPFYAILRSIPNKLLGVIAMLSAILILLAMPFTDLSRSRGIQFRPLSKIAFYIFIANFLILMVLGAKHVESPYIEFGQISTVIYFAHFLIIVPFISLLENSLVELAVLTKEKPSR
Experimental: The mixed population of B. cinerea fungi used in this study was kindly provided by Dr. Joelle Dupont (Museum National d’Histoire Naturelle, Paris, France). Conidia from Botrytis cinerea were obtained from 15–30 d cultures grown on malt medium agar plates. Mycelial colonies were prepared by seeding conidia from 10 colonies in liquid medium (10 g of glucose, 2 g of KH2PO4, 0.5 g of MgSO47H2O, 1 g of (NH4)2SO4, 2 g of yeast extract and deionized water up to 1 l, pH 6.2). Incubation was performed at 23°C until hyphae totally covered the surface of the bottle. The hyphae (9-cm-diameter disks) were harvested, washed twice with refrigerated distilled water and finally with mitochondria extraction medium containing 20 mM Tris (pH 7.2), 0.25 M sucrose, 40 mM KCl, 2 mM EGTA, 1 mg/ml BSA, and no cysteine. The hyphae were suspended in 150 ml of extraction medium, cut in small pieces (1 cm^2) and then disrupted at high speed for 1×2 sec and at low speed for 2×3 sec using a MultiMoulinex mixer (Moulinex, France). The suspension of disrupted hyphae was then filtered through two layers of nylon cloth (clearance 150 μm). The cloth was washed with 50 ml of extraction medium. After low-speed centrifugation (700 g for 15 min), the mitochondria were collected at 10,000 g for 20 min. The pellet was suspended in 250 μl of extraction medium, aliquoted (± 30 μl) and kept frozen at -80°C.
(§1) RC enzyme activities were spectrophotometrically measured using a pseudo-double-wavelength spectrophotometer (Cary 60, Agilent). Malonate-sensitive succinate quinone dichlorophenolindophenol (DCPIP) reductase (SQDR), as an indicator of the activity of the isolated SDH enzyme (isolated CII), and glycerol-3-phosphate quinone DCPIP reductase (GQDR), as a measure of the activity of the isolated glycerol-3-phosphate dehydrogenase (G3PDH), were assayed as previously described. […] With this aim, we measured the malonate-sensitive succinate cytochrome c reductase (SDH+CIII), glycerol-3-phosphate cytochrome c reductase (G3PDH+CIII) and antimycin-sensitive quinol cytochrome c reductase (CIII) as previously described.
(§2) The effects of eight different SDHIs (up to 500 μM; S2 Fig) were determined on four different biological materials. Because IC50 are known to be affected by the actual absolute activity of the tested enzyme, these IC50 were quantified using similar levels of SDH enzyme activity during the assay. IC50 values were determined using the AAT Bioquest IC50 calculator tool (https://www.aatbio.com/tools/ic50-calculator).

[3] = molecular target: T2, glycerol-3-phosphate cytochrome c reductase (G3PDH+CIII) (Lumbricus terrestris, UniProt Q34945); experiment: GCCR activity, earthworm homogenate; assay type: biochemical
T2 sequence (Q34945 1-379): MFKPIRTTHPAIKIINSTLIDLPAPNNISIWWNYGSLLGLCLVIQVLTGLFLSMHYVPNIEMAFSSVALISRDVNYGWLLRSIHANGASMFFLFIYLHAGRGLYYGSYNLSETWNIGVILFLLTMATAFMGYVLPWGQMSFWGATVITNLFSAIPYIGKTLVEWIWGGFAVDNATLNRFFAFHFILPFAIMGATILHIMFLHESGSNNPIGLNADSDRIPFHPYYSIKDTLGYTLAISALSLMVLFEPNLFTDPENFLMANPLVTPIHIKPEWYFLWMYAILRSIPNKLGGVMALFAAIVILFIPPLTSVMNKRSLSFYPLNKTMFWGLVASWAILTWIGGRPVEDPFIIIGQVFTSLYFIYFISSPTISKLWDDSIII
Experimental: L. terrestris individuals (n = 5) were collected manually in a household compost in Epernon (France 28230) and identified by the person (Paule Bénit) in charge of this compost. Before use, the worms were washed 5 times with 1× phosphate-buffered saline. A fresh homogenate was prepared from the segments located between the prostomium and clitellum of the 5 individuals. Tissues were placed in 500 μl of an ice-cold medium consisting of 20 mM Tris (pH 7.2), 0.25 M sucrose, 40 mM KCl, 2 mM EGTA, and 1 mg/ml BSA and homogenized using a 1-ml glass-glass Potter-Elvehjem homogenizer. Low-speed centrifugation at 1,500 g for 5 min allowed heavy debris to be discarded. The supernatant was distributed as 50-μl aliquots and kept frozen at -80°C.
as §1, §2

[4] = according to European regulations; ref European regulations; cited from earlier work

## Cn1cc(C(=O)Nc2ccc(F)cc2-c2ccc(Cl)c(Cl)c2)c(C(F)F)n1 [Bixafen, bixafen]
[1]
  Blood concentration corresponding to the ADI: 580 nM
[2]
  IC50: 22.5 µM
[3]
  IC50: 450 µM

## O=C(Nc1ccccc1-c1ccc(Cl)cc1)c1cccnc1Cl [Boscalid, boscalid]
[1]; average adult 60 kg, blood volume 5 l
  Blood concentration corresponding to the ADI: approximately 1.40 μM

## CC(C)Oc1cccc(NC(=O)c2ccccc2C(F)(F)F)c1 [Flutolanil, flutolanil]
[4]
  ADI (Acceptable Daily Intake): 0.09 mg/kg/day

## Cn1cc(C(=O)Nc2ccccc2-c2cc(F)c(F)c(F)c2)c(C(F)F)n1 [Fluxapyroxad, fluxapyroxad]
[1]
  Blood concentration corresponding to the ADI: 580 nM
[2]
  IC50: 60 µM
[3]
  IC50: > 500 µM

## CC(C)C1C2CCC1c1c(NC(=O)c3cn(C)nc3C(F)F)cccc12 (centres unmarked) [Isopyrazam, isopyrazam]
[2]
  IC50: 27.9 µM
[3]
  IC50: 83 µM
[4]
  ADI (Acceptable Daily Intake): 0.03 mg/kg/day

## Cc1nn(C)c(F)c1C(=O)Nc1ccccc1C(C)CC(C)C (centres unmarked) [Penflufen, penflufen]
[2]
  IC50: 80 µM
[3]
  IC50: > 500 µM
[4]
  ADI (Acceptable Daily Intake): 0.04 mg/kg/day
